From US5103018A, “Mitomycin derivatives” (Kyowa Hakko Kogyo Kabushiki Kaisha, priority 1986, dated 1992)
Values after ≈ are worked out from the molar mass of the structure shown.

Assays:
ddy mice = experiment: Acute toxicity; assay type: in vivo; conditions: for C.I. (LD50/ED50) (in words): in comparison with mitomycin C
Experimental: (§1) Certain compounds were selected from Compounds I. The following Table 4 indicates anti-tumour activity against Sarcoma 180 solid tumour (ED50), acute toxicity (LD50) and effects on the peripheral leucocytes (WBC4000) of each compound.
(§2) Each animal of the test group consisting of 5 ddy mice was once administered (i.p.) with a test compound. […] The LD50 was determined by Behren Korber's method.

Acute toxicity = assay type: in vivo, mice (ddy); conditions: mouse, in vivo, ip; for LD50 at 336 h: ddy mice, single i.p., 14 days, Behren Korber's method; for selectivity ratio: read-out: (C.I.)* = (LD50/ED50)/[(LD50/ED50) of MMC1]
Experimental: as §1, §2

[1] = system: Staphylococcus aureus ATCC 6583P; experiment: Minimum inhibitory concentration, agar dilution method, SA; assay type: cell-based; conditions: Staphylococcus aureus, ATCC6583P, pH 7, read-out: minimum inhibitory concentration, SA
Excerpt: (§3) Certain Compounds I were selected. Table 3 indicates their anti-bacterial activities in terms of their minimum inhibitory concentration (μg/ml), determined by the agar dilution method effected at a pH of 7.0. In this table, the microorganisms used are abbreviated as follows:
SA: Staphylococcus aureus ATCC 6583P

Sarcoma 180 solid tumour = experiment: animal or person; assay type: in vivo, mice (ddy strain); conditions: for ED50: Mus musculus, Sarcoma-180, ip, 168 h, read-out: ED50 ip
Excerpt: as §1
(1) Effect against Sarcoma 180 solid tumour:
5×10^6 cells of Sarcoma 180 solid tumour cells were abdominally implanted into male mice of ddy strain. 7 days after this, ascites cells were sampled. The cells were washed once with a sterilized physiological solution of sodium chloride and were used to prepare a cell suspension containing 5×10^7 cells per ml. On each occasion, 0.1 ml of the cell suspension was subcutaneously implanted into the right armpit of a male mouse (ddy strain; body weight 20±2 g). 24 hours after the implantation of the tumour cells, the test compound which was dissolved in a physiological solution of sodium chloride with or without addition of Tween 80 was abdominally administered to each mouse of a group consisting of 5 animals at a does of 0.1-0.2 ml. The anti-tumour activity was determined as follows:
7 days after the implantation, the major axis (a) and the minor axis (b) of the tumour were measured to calculate a value of "a×b^2 /2" which corresponds to the volume of the tumour. The anti-tumour activity was expressed by T/C viz. the ratio of the volume of the tumours (T) of the group of animals administered with the test compound to the corresponding volume of tumours (C) of the untreated animals.
(2) Determination of ED50 :
The term ED50 denotes the administered amount needed for reducing the volume of Sarcoma 180 solid tumours in the animals to 50% on the basis of the corresponding volume of Sarcoma 180 solid tumours in control (untreated) animals.
On graph paper, T/C was indicated by an arithmetic scale on the longitudinal axis and the administered amount of test compound was indicated by a logarithmic scale on the lateral axis.

Escherichia coli ATCC 26 = experiment: Minimum inhibitory concentration, agar dilution method, EC; assay type: cell-based; conditions: Escherichia coli, ATCC26, pH 7, read-out: minimum inhibitory concentration, EC
Excerpt: as §3
EC: Escherichia coli ATCC 26

peripheral leucocytes = experiment: in vivo; assay type: in vivo, mice (ddy strain); conditions: for WBC4000/ED50 (in words): in comparison with mitomycin C
Experimental: as §1
(§4) (4) Effect upon the number of the peripheral leucocytes:
(§5) Sarcoma 180 solid tumour cells (5×10^6) were subcutaneously implanted into the right armpit of each mouse (body weight 20±2 g) of a group consisting of 5 male mice (ddy strain). 24 hours after implantation,a test compound was abdominally administered to each mouse. 4 days later, blood (each 0.02 ml) was collected from the suborbital plexus vein of each tumour-carrying mouse. The collected sample of blood was dispersed in 9.98 ml of Cell-kit Seven solution. One drop of saponin solution was added to the sample to dissolve erythrocytes and then a microcell counter was used to measure the number of leucocytes. On graph paper, the number of leucocytes was indicated on the y-axis by an arithmetic scale and the does of the test compound was indicated on the x-axis by a logarithmic scale.
(§6) The relationship between the number of peripheral leucocytes and the dosage of the test compound was plotted to obtain WBC4000 viz. the dosage corresponding to […] per mm^3 (about half of the number of leucocytes of normal mice).

in vivo = assay type: in vivo, mice (ddy strain); conditions: mouse, in vivo, ip; read-out: (WBC4000/ED50)* = (WBC4000/ED50)/[(WBC4000/ED50) of MMC1]
Experimental: as §1, §4, §5, §6

[2] = system: Streptococcus faecalis ATCC 10541; experiment: Minimum inhibitory concentration, agar dilution method, SF; assay type: cell-based; conditions: Enterococcus faecalis, ATCC10541, pH 7, read-out: minimum inhibitory concentration, SF
Excerpt: as §3
SF: Streptococcus faecalis ATCC 10541

P388 Leukemia = experiment: Effect upon Leukemia P 388; assay type: in vivo, mouse (CDF1); conditions: single i.p., 33 days
Experimental: (5) Effect upon Leukemia P 388:
Ascites cells were collected from P388 Leukemia-carrying mouse (DBA/2) 7 days after the implantation. The number of the cells of P388 Leukemia in the sample was counted. A physiological solution of sodium chloride was sterilized and used to prepare a cell suspension containing 5×10^6 tumour cells per ml. On each occasion, 0.2 ml of the suspension containing 1×10^6 cells was implanted into the abdominal cavity of each mouse (CDF1; body weight 20~25 g). 24 hours after implantation, the test compound was once given to each mouse of a test group consisting of 6 mice by abdominal injection.
The activity of the test samples was determined by the ratio of the average survival days of the treated animals to the average survival days of untreated animals viz. ILS % (Increased Life Span).

[3] = system: Proteus vulgaris ATCC 6897; experiment: Minimum inhibitory concentration, agar dilution method, PV; assay type: cell-based; conditions: Proteus vulgaris, ATCC6897, pH 7, read-out: minimum inhibitory concentration, PV
Excerpt: as §3
PV: Proteus vulgaris ATCC 6897

[4] = system: Klebsiella pneumoniae ATCC 10031; experiment: microbe, parasite or virus in culture; assay type: cell-based; conditions: ATCC10031, pH 7, read-out: minimum inhibitory concentration, KP
Excerpt: Certain Compounds I were selected. […] In this table, the microorganisms used are abbreviated as follows:
KP: Klebsiella pneumoniae ATCC 10031

Solubility in water = assay type: physicochemical; conditions: for solubility: water
[5] = Equilibration between mitomycin-type and albomitomycin-type substance in aqueous solution; assay type: physicochemical; conditions: aqueous solution (5 mg/ml), 25° C., 24 hours
Experimental: In the case wherein the compound of Example 1 described hereinafter was equilibrated by allowing to stand in an aqueous solution (5 mg/ml) at a temperature of 25° C. for 24 hours, the molar ratio of the albomitomycin-type substance was 8.5%.

Lipophilicity = assay type: physicochemical; conditions: in comparison with mitomycin C
[6] = Stability of isolated compound; assay type: physicochemical

Row | Compound | C.I. (LD50/ED50) (in words) (ddy mice) | LD50 at 336 h (Acute toxicity) [mg/kg] | selectivity ratio (Acute toxicity) | ED50 (Sarcoma 180 solid tumour) [mg/kg] | WBC4000/ED50 (in words) (peripheral leucocytes) | selectivity ratio (in vivo) | lipophilicity (in words) (Lipophilicity) | other results
1 | CO[C@@]12[C@H](COC(N)=O)C3=C(C(=O)C(C)=C(NCCSSCCNC(=O)CC[C@H](N)C(=O)O)C3=O)N1C[C@@H]1N[C@@H]12 [Compound 1, 7-N-[2-[[2-(N^5 -L-glutamino)ethyl]dithio]ethyl]mitomycin C] | very high | 22.5 | 2.58 | 2.7 | very high | 4.12 | – | MIC [1]: 0.8 µg/mL (≈ 1.34 µM); MIC (Escherichia coli ATCC 26): > 50 µg/mL; MIC [2]: 1.6 µg/mL (≈ 2.67 µM); ILS* (ratio of ILS % to that of mitomycin C) (P388 Leukemia; dose 25 mg/kg): > 2.30; MIC [3]: 0.8 µg/mL (≈ 1.34 µM); MIC [4]: 0.4 µg/mL (≈ 0.668 µM); water-solubility (in words) (Solubility in water): good; solubility (Solubility in water): > 20 mg/mL; molar ratio of the albomitomycin-type substance at equilibrium [5]: 8.5%
2 | CO[C@@]12[C@H](COC(N)=O)C3=C(C(=O)C(C)=C(NCCSSCCNC(=O)C[C@H](N)C(=O)O)C3=O)N1C[C@@H]1N[C@@H]12 [Compound 6, 7-N-[2-[[2-(N^4 -L-asparagino)ethyl]dithio]ethyl]mitomycin C] | – | 26.3 | 1.81 | 5 | – | 2.38 | – | MIC [1]: 0.8 µg/mL (≈ 1.37 µM); MIC (Escherichia coli ATCC 26): > 50 µg/mL; MIC [2]: 3.1 µg/mL (≈ 5.3 µM); MIC [3]: 0.8 µg/mL (≈ 1.37 µM); MIC [4]: 0.8 µg/mL (≈ 1.37 µM); solubility (Solubility in water): > 20 mg/mL
3 | CO[C@@]12[C@H](COC(N)=O)C3=C(C(=O)C(C)=C(NCCSSCC(=O)O[C@H]4CC[C@H]5[C@@H]6CCc7cc(OC(=O)c8ccccc8)ccc7[C@H]6CC[C@]45C)C3=O)N1C[C@@H]1N[C@@H]12 [Compound 26, 7-N-[2-[[[[17β-(3-benzoyloxy-1,3, 5(10)-estratrienyl)oxy]carbonyl]methyl]dithio]ethyl]mitomycin C] | superior to mitomycin C | 18.8 | 1.27 | 5 | superior to mitomycin C | 2.57 | superior to mitomycin C | ILS* (ratio of ILS % to that of mitomycin C) (P388 Leukemia; dose 6.25 mg/kg): > 1.08
4 | CO[C@@]12[C@H](COC(N)=O)C3=C(C(=O)C(C)=C(NCCSSCCC(=O)O[C@H]4CC[C@H]5[C@@H]6CCc7cc(OC(=O)c8ccccc8)ccc7[C@H]6CC[C@]45C)C3=O)N1C[C@@H]1N[C@@H]12 [Compound 27, 7-N-[2-[[2-[[17β-(3-benzoyloxy-1,3, 5(10)-estratrienyl)oxy]carbonyl]ethyl]dithio]ethyl]mitomycin C] | superior to mitomycin C | 22.5 | 1.63 | 4.6 | superior to mitomycin C | 2.43 | superior to mitomycin C | ILS* (ratio of ILS % to that of mitomycin C) (P388 Leukemia; dose 12.5 mg/kg): > 1.53
5 | CC1=C(NCCSSCC(=O)O[C@H]2CC[C@H]3[C@@H]4CCc5cc(OC(=O)c6ccccc6)ccc5[C@H]4CC[C@]23C)C(=O)C2=C(C1=O)N1C[C@H]3[C@H](N3C)[C@]1(O)[C@H]2COC(N)=O (stereo partly drawn) [Compound 28, 7-N-[2-[[[[17β-(3-benzoyloxy-1,3, 5(10)-estratrienyl)oxy]carbonyl]methyl]dithio]ethyl]mitomycin D] | superior to mitomycin C | 75 | 2.53 | 9.9 | superior to mitomycin C | 1.43 | superior to mitomycin C | ILS* (ratio of ILS % to that of mitomycin C) (P388 Leukemia; dose 25 mg/kg): > 1.67
6 | CC1=C(/C=C/C(C)=C/C=C/C(C)=C/C(=O)NCCSSc2ccccn2)C(C)(C)CCC1 [Compound "m", N-2-(2-pyridyldithio)ethylretinamide] | – | – | – | – | – | – | – | stability (in words) [6]: unstable
7 | Cc1c(C)c2c(c(C)c1OC(=O)CCC(=O)NCCSSc1ccccn1)CC[C@@](C)(CCC[C@H](C)CCC[C@H](C)CCCC(C)C)O2 [Compound "n"] | – | – | – | – | – | – | – | stability (in words) [6]: relatively stable
8 | CO[C@]12[C@H](COC(N)=O)[C@H]3C(=O)C(N)=C(C)C(=O)[C@]34N3[C@H]1[C@@H]3CN24 [MM-C 2, albomitomycin C, reference compound] | – | – | – | – | – | – | – | LD50 ip (ddy mice; ddy mice, single i.p., 14 days, Behren Korber's method): < 12.0 mg/kg; (C.I.)* = (LD50/ED50)/[(LD50/ED50) of MMC1] (ddy mice; relative to mitomycin C, ip): 1.16; ED50 ip (Sarcoma 180 solid tumour; ddy mice, i.p. 24 h after implantation, 50% reduction of tumour volume at day 7): 5.4 mg/kg; (WBC4000/ED50)* = (WBC4000/ED50)/[(WBC4000/ED50) of MMC1] (peripheral leucocytes; relative to mitomycin C, ip, 4 days after dosing): 0.95
